# Assay results reported in the pKa sets of Baltruschat and Czodrowski (2020).
# Settings: acidic group
row,Compound,pKa
1,NCCc1ccc(O)cc1,10.8
2,[O-]c1[nH+]c(O)nc2nc[nH]c12,7.56
3,Cc1ccc(O)c(Cc2cc(C)cc([N+](=O)[O-])c2O)c1,6.87
4,CCCCN(C(=O)c1ccc(O)cc1)c1ccc(/N=N/c2ccc3c(c2)OCCOCCOCCOCCOCCO3)cc1,9.12
5,NC(=O)CS,8.22
6,Cc1n[nH]c(C(=O)O)c1[N+](=O)[O-],2.26
7,O=C1CCc2ccc([N+](=O)[O-])cc2C1,11.8
8,Oc1[nH+]ncc2ccccc12,-2
9,CCCCCCCCCCc1c(-c2ccccc2)nn(-c2ccccc2)c1O,6.7
10,NC(=O)[C@H]1CC(=O)N[C@@H]1C(=O)O,3
11,CCCCNC(=O)NS(=O)(=O)c1ccc(C)cc1,5.3
12,Cc1csc(C(=O)O)c1,3.66
13,C(C[NH2+]CCc1nnn[nH]1)[NH2+]CCc1nnn[n-]1,4.09
14,Oc1ccccc1F,8.81
15,S=C(Nc1ccc(Cl)cc1)c1ccc(Cl)cc1,10.2
16,NS(=O)(=O)c1ccc(P(=O)(O)O)cc1,1.42
17,COc1ccc(NC(=S)c2ccc(OC)cc2)cc1,11.8
18,O=[PH]([O-])C(NCc1ccccn1)c1ccccc1O (centres undefined),12
19,Cc1cccc([P+](c2cccc(C)c2)(c2cccc(C)c2)C2c3ccccc3-c3ccccc32)c1,9.55
20,[NH3+]CCc1nnn[nH]1,3.99
21,NC(=O)Nc1[nH]cnc1C(=O)[O-],12.2

row,Compound,pKa
1,Oc1cccc2cccnc12,9.77
2,O=C([O-])[C@H]1O[C@@H]1C(=O)O,3.25
3,COc1cc[n+](O)cc1,2.05
4,O=C(O)CSCCc1ccccc1,3.8
5,Cc1cc(O)ccc1C(=O)O,4.71
6,O=C(O)[C@@H]1C[C@@H]1c1ccccc1,4.82
7,Cc1nnc([N-]S(=O)(=O)c2ccc(O)cc2)s1,8.81
8,CCCCCCc1c(-c2ccccc2)n[nH]c1O,8.6
9,O=C(O)C1CC[NH2+]C1 (centres undefined),3.38
10,O=C(N/N=C/c1ccccc1[O-])c1ccncc1,11.3
11,O=C([O-])[C@@H](NCC[NH2+][C@@H](C(=O)[O-])c1ccccc1[O-])c1ccccc1O,10.8
12,CC1=C(O)C(O)=CC1,9.11
13,NNC(=O)CS,8.05
14,O=C([O-])[C@@H]1CC[C@H](C(=O)O)C1,5.52
15,Oc1ccc(/N=N/c2ccccc2)cc1,8.44
16,Cc1ncsc1C(=O)O,3.54
17,Cc1cc(O)ccc1Cl,9.4
18,O=C(O)[C@H]1C[C@@H]1c1ccc(Cl)cc1,4.53
19,NC(=O)C(N)=S,11.5
20,O=C(O)c1cc(-c2ccccc2)n[nH+]c1NCC[NH+]1CCOCC1,1.1
21,On1nnc2ccc(C(F)(F)F)cc21,3.97

row,Compound,pKa
1,O=c1[nH]c2ccccc2c(=O)o1,8.25
2,Cc1cc(C(F)(F)F)n[nH]1,12.3
3,CCC[NH2+]CCS,7.92
4,CCC(=O)/C=N/O,8.37
5,CCOC(=O)/C(C)=N/O,9.64
6,C=CCC1(C2C=CCCC2)C(=O)NC(=S)NC1=O (centres undefined),7.25
7,CC1(C)CC(=O)CC1=O,4.2
8,NC(=O)[C@@H]1CCCN1,8.82
9,CCCCN(C(=O)c1cc([N+](=O)[O-])ccc1O)c1ccc(/N=N/c2ccc3c(c2)OCCOCCOCCOCCOCCO3)cc1,6.3
10,NC(=O)C(CCCCC(=O)O)c1ccccc1 (centres undefined),4.79
11,Nc1ccc2cn[nH]c2c1,14.3
12,CCOC(=O)COc1ccc(Oc2ccc(O)c(C[NH3+])c2)c(Cl)c1Cl,8.55
13,O=C(O)C(=O)c1ccccc1,1.22
14,O=C(O)c1cc2ccccc2s1,3.1
15,O=S(=O)(Nc1cccc(C(F)(F)F)c1)c1ccccc1,7.63
16,O=S1(=O)Cc2cc(Br)ccc2N=CN1,9.3
17,O=C([O-])c1cc(O)c(O)c(C(=O)[O-])[o+]1,9.82
18,O=C(C[n+]1cccc2c3ccccc3ccc21)c1ccc(-c2ccccc2)cc1,11.2
19,O=C([O-])c1ccc(O)c2ncccc12,9.32
20,Nc1cccc(N)c1O,10.5
21,Nc1cc[nH+]c2c(O)cccc12,6.91

row,Compound,pKa
1,CC1(C)OC(=O)CC(=O)O1,5.15
2,O=S1(=O)C=C(O)c2ccccc21,7.65
3,CC/C=C/C(=O)O,4.69
4,CC(=N\O)/C(C)=N/O,10.6
5,COCC(=O)O,3.53
6,O=P(O)(O)C([NH2+]Cc1cccc[nH+]1)c1ccccc1O (centres undefined),2.25
7,O=c1ccc2ccccc2cc1O,10
8,N#C[C@H]1CCCC[C@@H]1C(=O)O,3.86
9,O=C(O)[C@H]1C[C@@H]1c1ccc([N+](=O)[O-])cc1,4.45
10,O=C(O)c1cc(=O)cco1,1.5
11,Cc1ccc(O)c(CN(C)C)c1,11.2
12,CC(=O)[n+]1cccc(Cl)c1,2.98
13,CNC(=O)CS,8.05
14,CC(=O)N1CS(=O)(=O)C[C@H]1C(=O)O,2.23
15,Cc1cc(/N=N/c2ccc(S([NH-])(=O)=O)cc2)cc(C(=O)[O-])c1O,12.1
16,O=C1NC(=S)NC12CCCCC2,8.79
17,NS(=O)(=O)C(F)(F)Br,6.53
18,COc1cccc(O)c1,9.51
19,[NH3+][C@@H](CCC(=O)O)C(=O)O,2.08

# Same assay, conditions: basic group
row,Compound,pKa
1,CC(=O)N(C)c1ccncc1,4.62
2,NCCc1ccc(O)cc1,9.45
